Test results from patent US6492428B1, “Compounds having MIF antagonist activity” (The Picower Institute for Medical Research, priority 2000, dated 2002).
Entries after “also recorded” stand apart in the source; their conditions may differ. Like-named read-outs stand apart in the source and are kept apart here.

Tests used:
human MIF [1] = target: T1, human MIF (Homo sapiens, UniProt P14174); experiment: MIF dopachrome tautomerase enzyme inhibition assay; assay type: biochemical; conditions: for MIF enzyme inhibition activity (in words): dopachrome tautomerase assay; for IC50: MIF 0.7 μg/ml treated 5 minutes, dopachrome methyl ester (1) substrate; for effect on MIF enzymatic activity at doses equimolar to MIF monomer: higher MIF concentrations (approximately 0.1 mg/ml and above); for inhibition at 200 µM: read-out: % inhibition at 200 μM
T1 construct: made in house; host or cells: E. coli
T1 sequence (P14174 2-115 limits assumed): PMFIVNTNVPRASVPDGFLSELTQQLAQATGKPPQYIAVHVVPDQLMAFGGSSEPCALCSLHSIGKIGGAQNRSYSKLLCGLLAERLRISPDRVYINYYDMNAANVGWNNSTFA

recombinant mouse MIF = recombinant mouse MIF (Mus musculus, UniProt P34884); experiment: Tautomerase enzyme inactivation of murine MIF before the bioassay
human MIF [2] = target: T1, human MIF; experiment: MIF tautomerase inhibition in the presence of fetal bovine serum; assay type: biochemical
L6 rat myoblasts = experiment: Fructose-2,6-bisphosphate (F2,6BP) induction assay; assay type: cell-based; conditions: for induction of F2,6BP production (in words): MIF conjugated with compound, 10 ng/ml; for F2,6BP production: murine MIF 10 ng/ml, untreated or pretreated (conjugated) with compound, control=100%
human MIF [3] = target: T1, human MIF; experiment: Covalent enzyme modification (SDS-PAGE, MALDI MS, dialysis/gel filtration)
NIH/3T3 cells = experiment: MIF-induced arachidonic acid release; assay type: cell-based; conditions: cells labeled with 1 μM [14C]-arachidonic acid
Experimental: NIH/3T3 cells were labeled with 1 μM [^14C]-arachidonic acid. After overnight culture, the cells were washed extensively with PBS and then the appropriate samples of MIF or MIF-NAPQI (4) conjugate were added in duplicate. The release of arachidonic acid into the culture medium was then measured.
The effect of MIF-NAPQI (4) conjugate on arachidonic acid release was tested by adding equivalent amounts of either MIF or MIF-NAPQI (4) conjugate to NIH3/3T3 cell cultures that had been pre-equilibrated with radioactive arachidonate, followed by the measurement of arachidonic acid release by scintillation counting. Briefly, NIH/3T3 fibroblasts were labeled with 1 μM [^14C]-arachidonic acid. After overnight culture, the cells were washed extensively with PBS, and the appropriate samples of MIF or MIF-NAPQI (4) conjugate were added in duplicate. The release of arachidonic acid into medium was then measured as described previously (Mitchell et al., J. Biol. Chem., 274:18100-18106, 1999).

anti-MIF antibodies = experiment: Cross-reactivity with anti-MIF antibodies (ELISA); assay type: binding; conditions: for recognition by anti-MIF antibodies (in words): MIF incubated with NAPQI (4) versus unmodified MIF
Experimental: FIG. 7 illustrates the loss of immunological crossreactivity with anti-MIF antibodies following incubation of MIF with NAPQI (4).
(iii) Cross-reactivity with anti-MIF antibodies. […] Without being bound by mechanism, and in view of the lack of bioactivity of the MIF-NAPQI (4) conjugate in the above arachidonic acid release and F2,6BP induction assays, it is likely that NAPQI (4) conjugation induces distortion of the MIF peptide conformation. This distortion also renders the MIF-NAPQI (a) (4) conjugate non-crossreactive with anti-MIF Mab.
The presence of such structural changes was further explored by characterizing the binding of additional MIF-specific antibodies (Picower Institute clones XIV. 14.3, III.D.9 and XIV. 15.5, which differ in their epitope recognition and activity to inhibit biologically active MIF), using a standard ELISA technique. In a standardized sandwich ELISA specific for MIF Meinhardt et al., Endocrinology, 137:5090-5095, 1996), an equivalent amount of MIF-NAPQI (4) conjugate (as indicated by protein concentration) was recognized 7-fold less than purified recombinant MIF that had not been exposed to NAPQI (4) (FIG. 7). Again, without being bound by mechanism, this loss of cross-reactivity of MIF-NAPQI (4) was most likely due to remote structural changes in MIF induced by covalent attachment of NAPQI (4). These structural changes might, in turn, account for the lack of bioactivities of MIF-NAPQI (4) and MIF-N-acetyl-3-hydroxy-p-benzoquinone imine (6) conjugates in the F2,6BP induction assay, and for the lack of bioactivity of MIF-NAPQI (4) conjugate in the arachidonic acid release assay.

O=C(O)/C=C/c1ccc(O)c(O)c1 [Compound 15]
MIF enzyme inhibition activity (in words) (human MIF [1]): little, if any

CC(=O)N=C1C=CC(=O)C=C1 [Compound 4, N-Acetyl-p-benzoquinone imine]
inhibition of enzyme activity / enzyme inactivation (recombinant mouse MIF; mouse MIF pretreated with 167 μM compound): 96%
inhibition at 167 µM (recombinant mouse MIF; read-out: inhibition of enzyme activity / enzyme inactivation, mouse MIF pretreated with 167 μM compound): 98%
fetal bovine serum concentration at which loss in inhibitory activity became detectable (human MIF [2]; MIF 0.72 μg/ml, compound 0.2 mM): 25%
inhibition of MIF in the presence of serum proteins (in words) (human MIF [2]; MIF 0.72 μg/ml, compound 0.2 mM, 20 minutes): occurred even in the presence of serum proteins
inhibition at 200 µM (human MIF [2]; read-out: residual inhibitory activity): 31%
induction of F2,6BP production (in words) (L6 rat myoblasts): fail to induce
F2,6BP production (L6 rat myoblasts): 94 % of control
restoration of enzymatic activity by dialyzing or gel filtering inactivated MIF (human MIF [3]; MIF inactivated with compound, data not shown): not possible to restore enzymatic activity
chemical modification of MIF (in words) (human MIF [3]; SDS-PAGE and MALDI mass spectra of treated MIF): stable, covalent conjugates
inhibition of enzymatic activity (human MIF [1]): 69%
MIF enzyme inhibition activity (in words) (human MIF [1]): potent inhibitor
inhibition at 49.5 µM (human MIF [1]; read-out: enzyme inhibition): 37%
inhibition at 190 µM (human MIF [1]; read-out: enzyme inhibition): 94%
inhibition at 500 µM (human MIF [1]; read-out: enzyme inhibition): 100%

O=C(O)C1=CC(=O)C(=O)C=C1 [Compound 14]
IC50 (human MIF [1]): 4 µM

CC(=O)Nc1ccc(O)cc1 [Compound 3, acetaminophen, reference compound]
IC50 (human MIF [1]): 10000 µM

CC(=O)N=C1C(C)=CC(=O)C=C1C [Compound 9]
IC50 (human MIF [1]): 200 µM

CC(=O)Nc1ccc(O)c(O)c1 [Compound 5]
IC50 (human MIF [1]): 500 µM
MIF enzyme inhibition activity (in words) (human MIF [1]): little, if any

CC(=O)N=C1C=CC(=O)C(C)=C1 [Compound 7]
IC50 (human MIF [1]): 35 µM

iodoacetamide [Compound 17, reference compound]
% inhibition at 500 μM (human MIF [1]; 500 μM compound, MIF 0.7 μg/ml, 5 minutes): 0% inhibition at 500 μM
MIF enzyme inhibition activity (in words) (human MIF [1]): No inhibitory activity

CC(=O)N=C1C=CC(=O)C(O)=C1 [Compound 6, N-acetyl-3-hydroxy-p-benzoquinone imine]
induction of F2,6BP production (in words) (L6 rat myoblasts): fail to induce
F2,6BP production (L6 rat myoblasts): 105 % of control
IC50 (human MIF [1]): 0.7 µM
enzyme activity lost (human MIF [1]; MIF 2.8 μM (0.1 mg/ml, 8.4 μM monomer), compound at 7 μM (0.83 equivalents based on monomer)): 93%
enzyme activity lost (in words) (human MIF [1]; MIF 0.1 mg/ml, 1.7 equivalents/monomer): All
MIF enzyme inhibition activity (in words) (human MIF [1]): potent inhibitors; also recorded: sub-micromolar
effect on MIF enzymatic activity at doses equimolar to MIF monomer (human MIF [1]): virtually eliminated
more potent than dihydroquinone-like analog 5 (human MIF [1]; ratio of IC50 values versus compound 5): more than 715 fold

COC1=CC(=NC(C)=O)C=CC1=O [Compound 11]
IC50 (human MIF [1]): 25 µM

CC(=O)N=C1C=C(C)C(=O)C(C)=C1 [Compound 8]
IC50 (human MIF [1]): 120 µM

O=C(O)c1ccc(O)c(O)c1 [Compound 13]
MIF enzyme inhibition activity (in words) (human MIF [1]): little, if any
inhibition at 200 µM (human MIF [1]): 24%

CCN1C(=O)C=CC1=O [Compound 18, N-ethylmaleimide, reference compound]
MIF enzyme inhibition activity (in words) (human MIF [1]): No inhibitory activity
inhibition at 500 µM (human MIF [1]; read-out: % inhibition at 500 μM): 0%

COc1cc(NC(C)=O)ccc1O [Compound 10]
MIF enzyme inhibition activity (in words) (human MIF [1]): little, if any
inhibition at 200 µM (human MIF [1]; 200 μM compound, MIF 0.7 μg/ml, 5 minutes): 0%

O=C(O)/C=C/C1=CC(=O)C(=O)C=C1 [Compound 16]
IC50 (human MIF [1]): 0.3 µM
MIF enzyme inhibition activity (in words) (human MIF [1]): sub-micromolar
effect on MIF enzymatic activity at doses equimolar to MIF monomer (human MIF [1]): virtually eliminated

B1: MIF-NAPQI (4) conjugate: stable covalent conjugate formed when MIF is treated with NAPQI (4) (conjugate, UniProt P14174 2-115, looked up)
Macrophage migration …: PMFIVNTNVPRASVPDGFLSELTQQLAQATGKPPQYIAVHVVPDQLMAFGGSSEPCALCSLHSIGKIGGAQNRSYSKLLCGLLAERLRISPDRVYINYYDMNAANVGWNNSTFA
modifications: covalent NAPQI adduct
induction of arachidonic acid release (in words) (NIH/3T3 cells): did not induce; also recorded: does not induce
arachidonic acid released into culture supernatant relative to cultures treated with MIF (NIH/3T3 cells; equivalent amounts of MIF or conjugate): less than 1/10
induction of F2,6BP production (in words) (L6 rat myoblasts): failed to induce
recognition by anti-MIF antibodies (in words) (anti-MIF antibodies): fail to recognize
recognition by anti-MIF antibodies (in words) (anti-MIF antibodies; listed as MIF-NAPQI conjugate): significantly less
recognition in sandwich ELISA, less than unmodified recombinant MIF (anti-MIF antibodies; equivalent amount by protein concentration, standardized sandwich ELISA specific for MIF): 7 fold
